Data published in patent US6268395A, “Phorbol derivatives having antivirus activity” (Lead Chemical Co., Ltd., priority 1999, dated 2001).
Read-outs that look alike come from different tables or passages of the source.

Tests used:
HIV-1 = assay: Inhibition of HIV-1-induced cytopathic effect (CPE) in MT-4 cells; assay type: cell-based, HIV-1 (LAV-1) in human MT-4 cells; details: for CPE inhibitory effect (in words): HIV-1; for anti-HIV-1 activity: at concentrations up to 500 μg/mL; for IC100: Human immunodeficiency virus 1, MT4, 120 h, read-out: Anti-HIV-1 IC100 (complete prevention of HIV-1-induced CPE); for r = CC0/IC100: 7200 min
Protocol: (§1) In the experiments, MT-4 cells were used. The cells were incubated at 37° C. under 5% CO2 in RPMI-1640 medium (FCS, Flow laboratories, North Ryde, Australia) supplemented with 100 μg/mL of streptomycin (Meiji Seika, Tokyo, Japan), and 100 U/mL of penicillin G (Banyu Pharmaceutical, Tokyo, Japan).
HIV-1 was obtained from culture supernatant of MOLT-4 cells that had been persistently infected with LAV-1.
j) Assay of cytopathic effect(CPE) of HIV-1 in MT-4 cells
(§2) The inhibitory effect of test compounds on HIV-1-induced cytopathogenicity was measured by the method of Harada, Koyanagi & Yamamoto (1985). MT-4 cells were infected for 1 hour with HIV-1 (at TCID50 of 0.001/well) and non-adsorbed virus was removed by washing. Then, the cells were resuspended in RPMI-1640 medium at a concentration of 1.5×10^5 cells/mL. A 200 μL/well of the cell suspension was cultured for 5 days in days in a 96-well culture plate containing various concentrations (12 doses, maximum 1,000 μg/mL and minimum […]) of the test compounds. Control assays were performed in the absence of test compounds with HIV-1-infected and uninfected cultures. On day 5, the IC100 of the test compound required for completely preventing HIV-1-induced CPE(IC) was determined through an optical microscope and the cell growth was examined to give the CC0 that reduces the viability of MT-4 cells.
A variety of phorbol esters and related compounds were tested for their ability to inhibit the replication and infectivity of HIV-1 in MT-4 cells, a human CD4-positive cell line continually infected with HTLV-1, and the results are presented in Table 3.

[1] = Cell growth / viability of MT-4 cells (cytotoxicity); assay type: cell-based; details: human, day 5, read-out: CC0 (concentration that reduces viability of MT-4 cells; minimum cytotoxic concentration)
Protocol: as §1, §2

protein kinase C (PKC) = assay type: biochemical, mouse; details: for % Activity of PKC: relative to TPA positive control; for activation of PKC (in words): concentration not given
Protocol: After addition of 0.55 nM [γ-^32 P] ATP (50×10^3 cpm/nmol), the reaction mixture was mixed and allowed to be kept at 37° C. for 30 minutes. Then the reactions were terminated by the addition of 10 μl of ice-cold stop reagent. Aliquots of 35 μL were transferred to the center of peptide binding discs. After 10 minutes, the discs were washed two times with 75 mM orthophosphoric acid. The activity of ^32 P-labeled samples was counted in 10/mL of a scintillation fluid for 1 minute. […] Blank (in the absence of PKC) and control (in the absence of TPA or tested samples) were also carried out. One unit of PKC was defined as that amount of enzyme, which incorporated 1 nmol of phosphate from ATP into its substrate, peptide, per minute under the assay conditions, described above.

[2] = MT-4 cells, 5 days, NE: Not effective
[3] = 10 ng/mL (standard concentration)

Row | SMILES | CPE inhibitory effect (in words) (HIV-1; MT-4 cells) | anti-HIV-1 activity (HIV-1) | MCC at 120 h [1] | PKC activation (in words) (protein kinase C (PKC); 10 ng to 2.7 μg/mL) | % Activity of PKC (protein kinase C (PKC); 10 ng/mL) | % Activity of PKC (protein kinase C (PKC); 2.7 μg/mL) | activation of PKC (in words) (protein kinase C (PKC)) | IC100 (HIV-1) | r = CC0/IC100 (HIV-1; MT-4 cells) | IC100 (HIV-1; [2]) | Anti-HIV-1 IC100 (complete prevention of HIV-1-induced CPE) (HIV-1; [2]) | enhancement of CPE inhibitory activity (HIV-1; relative to compound 1) | PKC activation (in words) (protein kinase C (PKC); [3]) | PKC activation (in words) (protein kinase C (PKC); high concentrations)
1 | CCCC(=O)OCC1=C[C@H]2[C@@H]3C(C)(C)[C@]3(OC(=O)CCC)[C@H](OC(=O)CCC)[C@@H](C)[C@]2(O)[C@@H]2C=C(C)C(=O)[C@]2(O)C1 [Compound 22, 4α-Phorbol-12,13,20-tributyrate] | showed no effect | did not show anti-HIV-1 activity | 62.5 µg/mL | no activation | 0% | 0% | – | – | – | – | – | – | – | –
2 | CC1=C[C@H]2[C@@]3(O)[C@H](C)[C@@H](OC(=O)c4ccccc4)[C@]4(OC(=O)c5ccccc5)[C@H]([C@@H]3C=C(COC(=O)c3ccccc3)C[C@]2(O)C1=O)C4(C)C [Compound 12, Phorbol-12,13,20-tribenzoate] | showed no effect | did not show anti-HIV-1 activity | 31.3 µg/mL | – | – | 100% | enhanced the activation of PKC | – | – | – | – | – | – | –
3 | CC(=O)OCC1=C[C@H]2[C@@H]3C(C)(C)[C@]3(OC(C)=O)[C@H](OC(C)=O)[C@@H](C)[C@]2(O)[C@@H]2C=C(C)[C@H](O)[C@@]2(O)C1 [Compound 15, 3-Deoxo-3β-hydroxyphorbol-12,13,20-triacetate] | loss of CPE inhibitory effect | – | 1000 µg/mL | – | 0% | 26% | – | 500 µg/mL | 2.00 | – | – | – | – | –
4 | C/C=C(\C)C(=O)O[C@@]12[C@H](OC(C)=O)[C@@H](C)[C@@]3(O)[C@@H](C=C(CO)C[C@]4(O)C(=O)C(C)=C[C@@H]34)[C@@H]1C2(C)C [Compound 3, 12-O-Acetylphorbol-13-tigliate] | weak inhibitory effects against CPE | – | 500 µg/mL | – | 16% | 30% | weak activation of PKC | – | 4.00 | 125 µg/mL | – | – | – | –
5 | C=C(C)C1C(OC(C)=O)=CC(C)C2(O)C1C=C(COC(=O)CCCCCCC/C=C\C/C=C\CCCCC)CC1(O)C(=O)C(C)=CC12 (stereo not shown) [Compound 18, 13-O-Acetylcrotophorbolone-enol-20-linoleate] | – | – | 125 µg/mL | – | 24% | 24% | – | – | 16.0 | 7.81 µg/mL | 7.8 µg/mL | 2 times | – | –
6 | CC(=O)O[C@@]12[C@H](O)[C@@H](C)[C@@]3(O)[C@@H](C=C(CO)C[C@]4(O)C(=O)C(C)=C[C@@H]34)[C@@H]1C2(C)C [Compound 10, 13-O-Acetylphorbol] | – | – | > 1000 µg/mL | – | 0% | 14% | – | – | > 8.00 | 125 µg/mL | – | – | did not activate PKC | –
7 | CC(=O)OCC1=C[C@H]2[C@@H]3C(C)(C)[C@]3(OC(C)=O)[C@H](OC(C)=O)[C@@H](C)[C@]2(OC(C)=O)[C@@H]2C=C(C)C(=O)[C@@]2(OC(C)=O)C1 [Compound 17, Phorbol-4,9,12,13,20-pentaacetate] | – | – | 250 µg/mL | – | 0% | – | – | – | 2.00 | 125 µg/mL | – | – | did not activate PKC | –
8 | CC(=O)OCC1=C[C@H]2[C@@H]3C(C)(C)[C@]3(OC(C)=O)[C@H](OC(C)=O)[C@@H](C)[C@]2(O)[C@@H]2C=C(C)C(=O)[C@]2(OC(C)=O)C1 [Compound 23, 4α-Phorbol-4,12,13,20-tetraacetate] | showed no effect | – | – | – | 0% | – | – | – | – | – | – | – | did not activate PKC | enhanced activation of PKC
